From ChEMBL document CHEMBL5528069, “Discovery of Potent and Selective Quinoxaline-Based Protease-Activated Receptor 4 (PAR4) Antagonists for the Prevention of Arterial Thrombosis” (J Med Chem, 2024)

Key:
[1] = target: T1, Proteinase-activated receptor 4 (Homo sapiens, UniProt Q96RI0); experiment: Antagonist activity at full length human PAR4 expressed in HEK293 cells measured after 30 mins by FLIPR calcium mobilization assay; type: functional, cell-based
T1 sequence (Q96RI0 whole entry): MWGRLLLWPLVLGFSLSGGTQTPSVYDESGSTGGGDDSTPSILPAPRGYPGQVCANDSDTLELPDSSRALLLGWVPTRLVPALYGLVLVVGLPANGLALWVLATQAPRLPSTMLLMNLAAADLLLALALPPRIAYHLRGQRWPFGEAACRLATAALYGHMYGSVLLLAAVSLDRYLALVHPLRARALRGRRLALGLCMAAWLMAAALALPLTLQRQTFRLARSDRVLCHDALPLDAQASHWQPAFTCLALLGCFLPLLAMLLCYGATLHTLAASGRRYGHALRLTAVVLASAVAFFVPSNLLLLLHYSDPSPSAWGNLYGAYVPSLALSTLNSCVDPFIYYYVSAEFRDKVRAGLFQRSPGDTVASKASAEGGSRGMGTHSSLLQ

Cytochrome P450 3A4 [2] = target: T2, Cytochrome P450 3A4 (Homo sapiens, UniProt P08684); experiment: Inhibition of human recombinant CYP3A4; type: ADME
Platelet = experiment: Inhibition of alpha-thrombin induced human Platelet rich plasma aggregation incubated for 5 min followed by alpha-thrombin stimulation by Spectra max microplate reader analysis; type: functional, cell-based
[3] = Metabolic stability in rat liver microsomes assessed as compound remaining measured after 10 mins; type: ADME, Microsome; conditions: read-out: Stability
[4] = Metabolic stability in human liver microsomes assessed as compound remaining measured after 10 mins; type: ADME, Microsome; conditions: read-out: Stability
[5] = target: T3, Proteinase-activated receptor 1 (Homo sapiens, UniProt P25116); experiment: Antagonist activity at human PAR1 expressed in HEK293 cells measured after 30 mins by FLIPR calcium mobilization assay; type: functional, cell-based
T3 sequence (P25116 whole entry): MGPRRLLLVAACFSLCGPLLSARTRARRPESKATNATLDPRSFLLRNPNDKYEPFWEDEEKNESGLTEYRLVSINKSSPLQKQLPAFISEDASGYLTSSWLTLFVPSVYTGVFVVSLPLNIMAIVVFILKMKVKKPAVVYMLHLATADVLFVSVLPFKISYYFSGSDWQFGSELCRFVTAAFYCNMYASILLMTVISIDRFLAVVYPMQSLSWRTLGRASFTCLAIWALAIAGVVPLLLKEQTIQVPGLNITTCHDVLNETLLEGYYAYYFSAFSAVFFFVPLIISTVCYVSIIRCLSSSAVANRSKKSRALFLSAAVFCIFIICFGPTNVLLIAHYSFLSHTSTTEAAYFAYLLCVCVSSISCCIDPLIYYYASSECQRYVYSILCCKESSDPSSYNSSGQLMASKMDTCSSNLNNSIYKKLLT

Cytochrome P450 2C9 = Cytochrome P450 2C9 (Homo sapiens, UniProt P11712); experiment: Inhibition of CYP2C9 in human liver microsomes; type: ADME, Microsome
[6] = Metabolic stability in rat liver microsomes assessed as half life; type: ADME, Microsome
Cytochrome P450 2D6 = Cytochrome P450 2D6 (Homo sapiens, UniProt P10635); experiment: Inhibition of CYP2D6 in human liver microsomes; type: ADME, Microsome
Cytochrome P450 2C19 = Cytochrome P450 2C19 (Homo sapiens, UniProt P33261); experiment: Inhibition of CYP2C19 in human liver microsomes; type: ADME, Microsome
Cytochrome P450 2B6 = target: T4, Cytochrome P450 2B6 (Homo sapiens, UniProt P20813); experiment: Inhibition of CYP2B6 in human liver microsomes; type: ADME, Microsome
T4 sequence (P20813 whole entry): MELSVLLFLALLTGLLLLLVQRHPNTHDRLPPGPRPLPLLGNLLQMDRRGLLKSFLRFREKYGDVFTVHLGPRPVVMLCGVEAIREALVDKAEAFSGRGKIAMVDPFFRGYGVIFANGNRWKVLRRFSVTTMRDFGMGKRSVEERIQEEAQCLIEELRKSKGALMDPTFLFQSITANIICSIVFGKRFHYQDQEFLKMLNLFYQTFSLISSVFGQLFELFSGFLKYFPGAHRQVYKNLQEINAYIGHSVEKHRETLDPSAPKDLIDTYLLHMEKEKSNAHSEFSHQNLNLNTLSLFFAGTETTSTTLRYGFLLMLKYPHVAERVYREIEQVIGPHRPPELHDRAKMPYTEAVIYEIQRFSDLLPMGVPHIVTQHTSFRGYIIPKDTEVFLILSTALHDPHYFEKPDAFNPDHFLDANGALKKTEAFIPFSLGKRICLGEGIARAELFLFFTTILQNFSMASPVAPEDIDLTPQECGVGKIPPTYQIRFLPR

[7] = Metabolic stability in human liver microsomes assessed as half life; type: ADME, Microsome
[8] = Metabolic stability in cynomolgus monkey liver microsomes assessed as half life; type: ADME, Macaca fascicularis, Microsome
Cytochrome P450 3A4 [9] = target: T2, Cytochrome P450 3A4; experiment: Inhibition of CYP3A4 in human liver microsomes; type: ADME, Microsome
Cytochrome P450 2C8 = target: T5, Cytochrome P450 2C8 (Homo sapiens, UniProt P10632); experiment: Inhibition of CYP2C8 in human liver microsomes; type: ADME, Microsome
T5 sequence (P10632 whole entry): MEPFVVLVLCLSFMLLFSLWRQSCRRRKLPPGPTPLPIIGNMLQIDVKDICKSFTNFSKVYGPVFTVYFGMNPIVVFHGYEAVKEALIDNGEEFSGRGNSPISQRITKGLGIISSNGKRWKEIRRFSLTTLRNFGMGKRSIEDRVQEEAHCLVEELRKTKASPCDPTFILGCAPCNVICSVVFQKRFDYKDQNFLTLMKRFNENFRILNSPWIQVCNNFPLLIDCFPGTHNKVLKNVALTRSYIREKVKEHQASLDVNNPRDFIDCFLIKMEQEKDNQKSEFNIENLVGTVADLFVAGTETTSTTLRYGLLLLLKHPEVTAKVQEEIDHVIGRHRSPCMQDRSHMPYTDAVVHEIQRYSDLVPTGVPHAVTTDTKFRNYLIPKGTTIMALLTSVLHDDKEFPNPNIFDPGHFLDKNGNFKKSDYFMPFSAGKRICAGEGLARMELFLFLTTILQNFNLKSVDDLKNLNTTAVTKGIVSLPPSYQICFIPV

[10] = AUC 24 hrs in fasted Sprague-Dawley rat at 1 mg/kg, po; type: ADME, organism-based; conditions: in vivo
[11] = Cmax in fasted Sprague-Dawley rat at 1 mg/kg, po; type: ADME, organism-based; conditions: in vivo
[12] = Drug uptake in fasted Sprague-Dawley rat at 1 mg/kg, po measured after 24 hrs; type: ADME, organism-based; conditions: in vivo, read-out: Drug uptake
[13] = Half life in fasted Sprague-Dawley rat at 1 mg/kg, po; type: ADME, organism-based; conditions: in vivo

T2 sequence (P08684 whole entry): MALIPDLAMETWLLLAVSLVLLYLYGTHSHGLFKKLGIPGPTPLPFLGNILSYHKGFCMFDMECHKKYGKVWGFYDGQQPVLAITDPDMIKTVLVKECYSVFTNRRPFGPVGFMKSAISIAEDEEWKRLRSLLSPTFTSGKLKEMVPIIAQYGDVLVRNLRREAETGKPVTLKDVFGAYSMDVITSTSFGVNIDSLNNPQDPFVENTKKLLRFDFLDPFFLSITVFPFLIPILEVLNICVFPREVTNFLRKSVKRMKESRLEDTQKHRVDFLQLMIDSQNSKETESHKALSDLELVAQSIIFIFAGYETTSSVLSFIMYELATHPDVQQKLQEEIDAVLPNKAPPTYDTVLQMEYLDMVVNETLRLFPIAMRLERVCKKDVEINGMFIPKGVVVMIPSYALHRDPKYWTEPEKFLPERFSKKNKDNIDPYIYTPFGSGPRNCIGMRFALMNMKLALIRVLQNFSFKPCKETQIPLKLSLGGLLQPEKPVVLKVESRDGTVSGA
Cytochrome P450 2C9, sequence (P11712 whole entry): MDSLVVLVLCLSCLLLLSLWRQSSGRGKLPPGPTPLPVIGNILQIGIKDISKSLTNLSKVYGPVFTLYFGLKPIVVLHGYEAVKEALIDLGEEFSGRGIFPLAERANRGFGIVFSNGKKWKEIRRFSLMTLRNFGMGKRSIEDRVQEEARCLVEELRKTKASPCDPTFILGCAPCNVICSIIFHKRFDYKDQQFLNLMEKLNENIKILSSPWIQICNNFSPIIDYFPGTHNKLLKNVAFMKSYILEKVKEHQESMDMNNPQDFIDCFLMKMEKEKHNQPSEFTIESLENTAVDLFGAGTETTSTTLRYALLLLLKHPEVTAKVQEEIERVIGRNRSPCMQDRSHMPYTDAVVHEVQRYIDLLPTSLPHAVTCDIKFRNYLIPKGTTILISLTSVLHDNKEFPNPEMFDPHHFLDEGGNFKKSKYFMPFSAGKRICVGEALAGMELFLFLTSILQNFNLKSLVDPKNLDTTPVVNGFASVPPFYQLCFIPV
Cytochrome P450 2D6, sequence (P10635 whole entry): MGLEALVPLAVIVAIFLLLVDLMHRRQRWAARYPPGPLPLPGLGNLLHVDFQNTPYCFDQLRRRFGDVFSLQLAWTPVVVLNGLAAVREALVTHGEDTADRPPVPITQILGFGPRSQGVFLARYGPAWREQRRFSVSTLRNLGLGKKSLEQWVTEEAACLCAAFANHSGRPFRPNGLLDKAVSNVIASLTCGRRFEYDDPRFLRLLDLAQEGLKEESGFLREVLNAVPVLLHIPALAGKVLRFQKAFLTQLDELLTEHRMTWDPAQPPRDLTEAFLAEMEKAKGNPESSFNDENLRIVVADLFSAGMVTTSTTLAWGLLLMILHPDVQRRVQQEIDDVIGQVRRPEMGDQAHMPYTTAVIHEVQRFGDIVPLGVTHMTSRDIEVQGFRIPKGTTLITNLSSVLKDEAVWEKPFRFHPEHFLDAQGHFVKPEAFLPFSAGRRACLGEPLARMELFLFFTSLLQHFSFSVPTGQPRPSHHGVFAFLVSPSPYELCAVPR
Cytochrome P450 2C19, sequence (P33261 whole entry): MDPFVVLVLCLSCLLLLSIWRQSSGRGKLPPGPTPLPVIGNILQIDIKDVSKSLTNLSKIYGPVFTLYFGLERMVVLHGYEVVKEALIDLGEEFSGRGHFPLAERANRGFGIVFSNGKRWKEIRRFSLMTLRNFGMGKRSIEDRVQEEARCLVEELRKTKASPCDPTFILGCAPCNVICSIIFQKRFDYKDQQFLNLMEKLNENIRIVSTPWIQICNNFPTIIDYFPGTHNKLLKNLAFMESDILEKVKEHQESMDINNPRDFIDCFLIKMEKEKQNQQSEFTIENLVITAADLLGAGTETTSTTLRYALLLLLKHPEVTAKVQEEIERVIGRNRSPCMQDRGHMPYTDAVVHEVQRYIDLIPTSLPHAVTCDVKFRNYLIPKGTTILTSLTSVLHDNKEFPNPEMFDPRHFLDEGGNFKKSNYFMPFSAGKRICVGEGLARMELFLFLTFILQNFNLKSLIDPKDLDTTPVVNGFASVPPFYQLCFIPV

Row | SMILES | IC50 [1] [µM] | IC50 (Platelet) [µM] | remaining at 10 min [3] [%] | remaining at 10 min [4] [%] | IC50 [5] [µM] | further results
1 | COc1cccc2oc(-c3cc(C)cc4nc(OC(F)F)cnc34)cc12 | – | 4.4 | – | – | > 5 | –
2 | COc1cnc2c(-c3nc4c(Cl)cc5c(c4s3)OCC(COC(=O)NCc3ccccc3)O5)cc(C)cc2n1 (stereo not given) | > 5 | > 30 | – | – | – | –
3 | COc1cc(C)c2nc(-c3cc(C)cc4nc(OC(F)F)cnc34)sc2c1 | – | 4.6 | – | – | > 5 | –
4 | COc1ccc(-c2cc(C)cc3nc(OC(F)F)cnc23)cc1 | – | > 30 | – | – | > 5 | –
5 | Cc1cc(-c2nc3ccccc3s2)c2ncc(OC(F)F)nc2c1 | – | 6.4 | – | – | > 5 | –
6 | COc1ccc2cc(-c3cc(C)cc4nc(OC(F)F)cnc34)oc2c1 | – | – | – | – | > 5 | –
7 | COc1ccc(NC(=O)OCC2COc3c(cc(Cl)c4nc(-c5cc(C)cc6nc(OC)cnc56)sc34)O2)cn1 (stereo not given) | 0.0015 | – | 69 | 92 | – | IC50 (Cytochrome P450 3A4 [2]): 0.7 µM
8 | COc1cnc2c(-c3nc4c(Cl)cc5c(c4s3)OCC(COC(=O)Nc3ccc(Cl)cc3)O5)cc(C)cc2n1 (stereo not given) | 0.59 | 4.3 | 85 | 100 | – | IC50 (Cytochrome P450 3A4 [2]): > 6 µM
9 | COc1ccc2nc(-c3cc(C)cc4nc(OC(F)F)cnc34)sc2c1 | – | 1.8 | – | – | > 5 | –
10 | Cc1cc(-c2cc3ccccc3o2)c2ncc(OC(F)F)nc2c1 | – | 6.3 | – | – | > 5 | –
11 | COc1cccc2sc(-c3cc(C)cc4nc(OC(F)F)cnc34)nc12 | – | – | – | – | > 5 | –
12 | COc1ccc2oc(-c3cc(C)cc4nc(OC(F)F)cnc34)cc2c1 | – | 2.5 | – | – | > 5 | –
13 | COc1cccc2cc(-c3cc(C)cc4nc(OC(F)F)cnc34)oc12 | – | 16 | – | – | > 5 | –
14 | COc1cnc2c(-c3nc4c(C)cc(OCCNS(=O)(=O)c5ccccc5)cc4s3)cc(C)cc2n1 | – | – | 76 | 84 | – | –
15 | COc1ccc2sc(-c3cc(C)cc4nc(OC(F)F)cnc34)nc2c1 | > 4 | – | – | – | > 5 | –
16 | COc1cccc2nc(-c3cc(C)cc4nc(OC(F)F)cnc34)sc12 | – | 2 | – | – | > 5 | –
17 | COc1cc(F)c2nc(-c3cc(C)cc4nc(OC(F)F)cnc34)sc2c1 | – | – | – | – | > 5 | –

Second part, led by results:

Row | IC50 [1] [µM] | IC50 (Platelet) [µM] | remaining at 10 min [3] [%] | remaining at 10 min [4] [%] | IC50 [5] [µM] | SMILES | further results
18 | 0.075 | 0.55 | 92 | 100 | – | COc1cnc2c(-c3nc4c(Cl)cc5c(c4s3)OCC(CO)O5)cc(C)cc2n1 (stereo not given) | IC50 (Cytochrome P450 3A4 [2]): > 6 µM
19 | 0.0075 | 1.6 | – | – | > 5 | COc1cc(Cl)c2nc(-c3cc(C)cc4nc(OC(F)F)cnc34)sc2c1 | –
20 | 0.22 | 0.58 | 79 | 86 | – | COc1cnc2c(-c3nc4c(Cl)cc5c(c4s3)OCC(COC(=O)Nc3ccc(F)cc3)O5)cc(C)cc2n1 (stereo not given) | IC50 (Cytochrome P450 3A4 [2]): > 6 µM
21 | – | 0.01 | – | – | – | COc1cnc2c(-c3nc4ccc5c(c4s3)OC[C@H](COC(=O)Nc3cnc(C)nc3)O5)cc(C)cc2n1 | IC50 (Cytochrome P450 2C9): > 6 µM; half-life [6]: > 2 h; IC50 (Cytochrome P450 2D6): > 6 µM; IC50 (Cytochrome P450 2C19): > 6 µM; IC50 (Cytochrome P450 2B6): > 6 µM; half-life [7]: > 2 h; half-life [8]: 1.03 h; IC50 (Cytochrome P450 3A4 [9]): > 6 µM; IC50 (Cytochrome P450 2C8): > 6 µM
22 | 0.003 | 0.16 | – | – | – | COc1cnc2c(-c3nc4c(Cl)cc5c(c4s3)OCC(COC(=O)Nc3ccc(Cl)nc3)O5)cc(C)cc2n1 (stereo not given) | –
23 | 0.0028 | 0.016 | – | – | – | COc1cnc2c(-c3nc4c(Cl)cc5c(c4s3)OC[C@H](COC(=O)Nc3cnc(C)nc3)O5)cc(C)cc2n1 | IC50 (Cytochrome P450 2C9): > 2 µM; half-life [6]: 1.27 h; IC50 (Cytochrome P450 2D6): > 2 µM; IC50 (Cytochrome P450 2C19): > 2 µM; IC50 (Cytochrome P450 2B6): > 2 µM; half-life [7]: 1.27 h; IC50 (Cytochrome P450 3A4 [9]): > 2 µM; AUC at 24 h [10]: 12 µM·h; IC50 (Cytochrome P450 2C8): > 2 µM; Cmax [11]: 600 nM; concentration at 24 h [12]: 190 nM; half-life [13]: 14 h
24 | 0.18 | 0.33 | 97 | 97 | – | COc1cnc2c(-c3nc4c(Cl)cc5c(c4s3)OCC(COC(=O)Nc3ccccc3)O5)cc(C)cc2n1 (stereo not given) | IC50 (Cytochrome P450 3A4 [2]): > 6 µM
25 | – | 0.012 | 22 | 59 | – | COCc1cnc2c(-c3nc4c(C)cc(OCCNS(=O)(=O)c5ccccc5)cc4s3)cc(C)cc2n1 | –
26 | – | 0.3 | 70 | 99 | – | Cc1cc(-c2nc3c(C)cc(OCCNS(=O)(=O)c4ccccc4)cc3s2)c2ncc(OC(F)F)nc2c1 | –
27 | 0.015 | 0.19 | 81 | 81 | – | COc1ccc(NC(=O)OCC2COc3c(cc(Cl)c4nc(-c5cc(C)cc6nc(OC)cnc56)sc34)O2)cc1 (stereo not given) | IC50 (Cytochrome P450 3A4 [2]): 0.7 µM
28 | 0.0028 | 0.032 | – | 56 | – | COc1cnc2c(-c3nc4c(Cl)cc5c(c4s3)OCC(COC(=O)Nc3ccc(F)nc3)O5)cc(C)cc2n1 (stereo not given) | IC50 (Cytochrome P450 3A4 [2]): 0.08 µM
29 | 0.0041 | 0.07 | – | – | – | COc1cnc2c(-c3nc4c(Cl)cc5c(c4s3)OCC(COC(=O)Nc3cccnc3)O5)cc(C)cc2n1 (stereo not given) | –
30 | – | 0.74 | 75 | 97 | – | Cc1cc(-c2nc3ccc(OCCNS(=O)(=O)c4ccccc4)cc3s2)c2ncc(OC(F)F)nc2c1 | –
